Series [1] can be described thus: Antitumor activity against human HCI-013 cells xenograft mouse model assessed as tumor growth inhibition at 100 mg/kg relative to control. The conditions noted are these: read-out: TGI. The series is classed as functional.
The nature of series [2]: Antitumor activity against human HCI-013 cells xenograft mouse model assessed as tumor growth inhibition at 30 mg/kg relative to control. In kind it is functional. The conditions noted are these: read-out: TGI. Background: A xenograft is tissue or cells of one species grown in another, often human tumour cells in immunodeficient mice.
Series [3] in a line: Antitumor activity in tamoxifen-resistant human MCF7 cells xenografted in 17beta-estradiol-treated NOD/SCID mouse model assessed as tumor growth inhibition at 60 mg/kg, po QD for 28 days relative to control. In kind it is functional. The conditions noted are these: tamoxifen-resistant MCF7 cell, 672 h, time 28 day, read-out: TGI.
The test system of series [4] is MCF7. Put plainly: animal or person. The conditions noted are these: Mus musculus, MCF7, 18 h, read-out: TGI.
Description: Antitumor activity in human MCF7 cells xenografted in 17beta-estradiol-treated NOD/SCID mouse model assessed as tumor growth inhibition at 10 mg/kg, sc and measured after 18 hrs post last dose
A short description of series [5]: Antitumor activity in tamoxifen-resistant human MCF7 cells xenografted in 17beta-estradiol-treated NOD/SCID mouse model assessed as tumor growth inhibition at 30 mg/kg, po QD for 28 days in the presence of palbociclib at 60 mg/kg relative to control. The series is classed as functional. The following applies: tamoxifen-resistant MCF7 cell, 672 h, time 28 day, read-out: TGI.

The test system of series [6] is MCF7. Put plainly: animal or person. The conditions noted are these: Mus musculus, MCF7, 336 h, read-out: TGI.
Description: Antitumor activity in human MCF7 cells xenografted in 17beta-estradiol-treated NOD/SCID mouse model assessed as tumor growth inhibition at 200 mg/kg, sc BIW for 2 weeks in the presence of palbociclib at 60 mg/kg relative to control
The nature of series [7]: Antitumor activity in tamoxifen-resistant human MCF7 cells xenografted in 17beta-estradiol-treated NOD/SCID mouse model assessed as tumor growth inhibition at 30 mg/kg, po QD for 28 days relative to control. In kind it is functional. The conditions noted are these: tamoxifen-resistant MCF7 cell, 672 h, time 28 day, read-out: TGI.
A short description of series [8]: AUC (0-24hrs) in human MCF7 cells xenografted in 17beta-estradiol-treated NOD/SCID mouse model at 3 mg/kg, po and measured after 18 hrs post last dose. The conditions noted are these: in vivo.
The subject of series [9] is MCF7. Put plainly: animal or person. The following applies: Mus musculus, MCF7, po, 672 h, read-out: TGI.
Description: Antitumor activity in human MCF7 cells xenografted in 17beta-estradiol-treated NOD/SCID mouse model assessed as tumor growth inhibition at 30 mg/kg, po QD for 28 days relative to control
Series [10] is described as follows: AUC (0-24hrs) in human MCF7 cells xenografted in 17beta-estradiol-treated NOD/SCID mouse model at 30 mg/kg, po and measured after 18 hrs post last dose. The conditions noted are these: in vivo.
Series [11] in a line: AUC (0-24hrs) in human MCF7 cells xenografted in 17beta-estradiol-treated NOD/SCID mouse model at 10 mg/kg, po and measured after 18 hrs post last dose. The following applies: in vivo.
Series [12] deals with MCF7. Put plainly: animal or person. The following applies: Mus musculus, MCF7, po, 672 h, read-out: TGI. The source holds these as a separate data set.
Description: Antitumor activity in human MCF7 cells xenografted in 17beta-estradiol-treated NOD/SCID mouse model assessed as tumor growth inhibition at 30 mg/kg, po QD for 28 days in the presence of palbociclib at 60 mg/kg relative to control
Series [13] has as its target T1, Protein cereblon/Estrogen receptor (Homo sapiens) (UniProt P03372+Q96SW2). The series can be described thus: Protac activity at E3 ubiquitin-protein ligase/ERalpha in human MCF7 cells xenografted in 17beta-estradiol-treated NOD/SCID mouse model assessed as reduction in ERalpha degradation at 10 mg/kg, po and measured after 18 hrs post last dose relative to control. Set-up: scale not given: the % may be the effect or the level left.

Series [14] can be described thus: Cmax in human MCF7 cells xenografted in 17beta-estradiol-treated NOD/SCID mouse model at 3 mg/kg, po and measured after 18 hrs post last dose. The following applies: in vivo.
In series [15] the target is T1, Protein cereblon/Estrogen receptor (Homo sapiens). The series can be described thus: Protac activity at E3 ubiquitin-protein ligase/ERalpha in human MCF7 cells xenografted in 17beta-estradiol-treated NOD/SCID mouse model assessed as reduction in ERalpha degradation at 30 mg/kg, po and measured after 18 hrs post last dose relative to control. More on the design: scale not given: the % may be the effect or the level left.

The target is the same in series [16]. Put plainly: Protac activity at E3 ubiquitin-protein ligase/ERalpha in human MCF7 cells xenografted in 17beta-estradiol-treated NOD/SCID mouse model assessed as reduction in ERalpha degradation at 3 mg/kg and measured after 18 hrs post last dose relative to control. In kind it is organism-based. Set-up: scale not given: the % may be the effect or the level left.

The test system of series [17] is MCF7. Put plainly: animal or person. The conditions noted are these: Mus musculus, MCF7, 18 h, read-out: TGI. The source holds these as a separate data set.
Description: Antitumor activity in human MCF7 cells xenografted in 17beta-estradiol-treated NOD/SCID mouse model assessed as tumor growth inhibition at 30 mg/kg, sc and measured after 18 hrs post last dose
A short description of series [18]: Cmax in human MCF7 cells xenografted in 17beta-estradiol-treated NOD/SCID mouse model at 10 mg/kg, po and measured after 18 hrs post last dose. The following applies: in vivo.
A short description of series [19]: Cmax in human MCF7 cells xenografted in 17beta-estradiol-treated NOD/SCID mouse model at 30 mg/kg, po and measured after 18 hrs post last dose. The conditions noted are these: in vivo.
The test system of series [20] is MCF7. The series can be described thus: cells. The conditions noted are these: Homo sapiens.
Description: Anti-proliferative activity against wild type human MCF7 cells assessed as reduction in cell growth by CellTiter-Glo assay
A further series deals with Estrogen receptor beta (Homo sapiens, UniProt Q92731). The series can be described thus: Inhibition of ERbeta (261 to 500 residues) in doxycycline-induced human HEK293 cells incubated overnight by luciferase based assay. In kind it is cell-based.
Estrogen receptor beta, sequence (Q92731 whole entry, the tested form may be a part): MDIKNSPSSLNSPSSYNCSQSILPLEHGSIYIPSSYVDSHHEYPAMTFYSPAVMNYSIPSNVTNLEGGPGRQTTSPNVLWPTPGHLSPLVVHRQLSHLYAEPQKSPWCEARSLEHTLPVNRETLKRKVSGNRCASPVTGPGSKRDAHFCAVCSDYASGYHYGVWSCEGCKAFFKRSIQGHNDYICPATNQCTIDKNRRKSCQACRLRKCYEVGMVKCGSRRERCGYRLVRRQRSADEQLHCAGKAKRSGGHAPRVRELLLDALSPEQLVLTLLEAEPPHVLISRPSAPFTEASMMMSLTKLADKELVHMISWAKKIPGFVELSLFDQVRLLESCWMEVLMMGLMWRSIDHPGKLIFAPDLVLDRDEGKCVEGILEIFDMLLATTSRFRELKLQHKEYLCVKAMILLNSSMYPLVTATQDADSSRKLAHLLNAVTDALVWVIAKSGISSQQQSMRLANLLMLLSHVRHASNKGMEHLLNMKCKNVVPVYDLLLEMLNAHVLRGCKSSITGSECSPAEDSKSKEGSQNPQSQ
For series [21], the system named is MCF7. The series can be described thus: cells. The conditions noted are these: Homo sapiens. This is another data set of the same source.
The test system of series [22] is MCF7. The series can be described thus: cells. The following applies: Homo sapiens. The source holds these as a separate data set.

Each structure is given as a SMILES string.

What is called AUC(0-t) is the area under the concentration-time curve up to a stated or last time point. One may read the Cmax as the highest concentration seen after dosing. As a reminder, the EC50 is the concentration at which the effect is half-maximal. As usually defined, the IC50 is the concentration that gives 50% inhibition.

T1 sequence (P03372 whole entry, looked up): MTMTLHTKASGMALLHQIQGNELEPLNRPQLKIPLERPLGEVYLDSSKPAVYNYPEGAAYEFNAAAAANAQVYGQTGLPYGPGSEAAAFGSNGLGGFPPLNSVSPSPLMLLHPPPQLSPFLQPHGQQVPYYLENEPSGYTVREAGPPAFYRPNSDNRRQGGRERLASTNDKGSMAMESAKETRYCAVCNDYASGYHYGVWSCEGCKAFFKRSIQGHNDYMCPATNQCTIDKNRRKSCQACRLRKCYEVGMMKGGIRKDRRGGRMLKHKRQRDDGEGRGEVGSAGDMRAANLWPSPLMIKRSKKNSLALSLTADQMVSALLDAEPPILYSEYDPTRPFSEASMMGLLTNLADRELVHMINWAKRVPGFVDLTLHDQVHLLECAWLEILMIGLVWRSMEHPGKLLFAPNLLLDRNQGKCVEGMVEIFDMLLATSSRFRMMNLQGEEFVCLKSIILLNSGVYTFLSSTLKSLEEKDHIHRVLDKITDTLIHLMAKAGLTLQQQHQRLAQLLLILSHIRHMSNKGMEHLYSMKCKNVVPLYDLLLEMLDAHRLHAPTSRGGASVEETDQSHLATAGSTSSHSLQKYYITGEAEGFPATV
T1 sequence (Q96SW2 whole entry, looked up): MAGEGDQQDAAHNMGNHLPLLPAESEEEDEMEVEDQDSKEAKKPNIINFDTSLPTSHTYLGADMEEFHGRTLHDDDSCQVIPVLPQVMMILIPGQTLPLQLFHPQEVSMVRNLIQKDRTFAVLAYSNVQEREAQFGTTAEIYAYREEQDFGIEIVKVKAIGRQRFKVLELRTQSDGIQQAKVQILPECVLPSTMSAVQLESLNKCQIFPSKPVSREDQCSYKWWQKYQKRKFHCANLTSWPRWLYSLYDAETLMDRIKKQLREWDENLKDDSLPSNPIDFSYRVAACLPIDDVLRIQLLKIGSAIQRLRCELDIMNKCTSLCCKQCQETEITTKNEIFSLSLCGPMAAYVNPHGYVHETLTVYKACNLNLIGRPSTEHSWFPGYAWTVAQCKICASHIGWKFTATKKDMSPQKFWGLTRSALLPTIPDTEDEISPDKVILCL

`CC/C(=C(/c1ccc(/C=C/C(=O)O)cc1)c1ccc2[nH]ncc2c1)c1ccc(F)cc1Cl` [BRILANESTRANT]: the inhibition in vivo at 100 mg/kg in series [1] was determined as 80%.

On to `CC1=C(c2cccc(O)c2)[C@H](c2ccc(OCCN3CC(CF)C3)cc2)Oc2ccc(O)cc21`, for which, in series [2], the inhibition in vivo at 30 mg/kg was found to be 100%. In addition, in series [1], the inhibition in vivo at 100 mg/kg stood at 124%.

For `CC(=O)c1c(C)c2cnc(Nc3ccc(N4CCNCC4)cn3)nc2n(C2CCCC2)c1=O` [PALBOCICLIB], the inhibition in vivo at 60 mg/kg in series [3] worked out at 91%.

Regarding `O=C1CC[C@H](N2Cc3cc(N4CCN(CC5CCN(c6ccc([C@@H]7c8ccc(O)cc8CC[C@@H]7c7ccccc7)cc6)CC5)CC4)ccc3C2=O)C(=O)N1` [VEPDEGESTRANT], in the series on MCF7 [4], the inhibition in vivo at 10 mg/kg was determined as 98%. For the same molecule, the inhibition in vivo at 30 mg/kg in series [5] was determined as 113%; in series [7] it was 65%; with MCF7 [9], 105%; in the series on MCF7 [12], 131%; in the series on MCF7 [17], 124%. Further, the inhibition in vivo at 200 mg/kg with MCF7 [6] came to 108%. The figures for the AUC(0-t) at 18 h in series [8], in series [10] and in series [11] were 658 ng·h/mL, 5720 ng·h/mL and 2540 ng·h/mL, respectively. Moreover, the values for the Activity in series [13], in series [15] and in series [16] were 97%, 94% and 95%, respectively. Besides, the Cmax in series [14] was determined as 84 ng/mL; in series [18] it was 312 ng/mL; in series [19], 962 ng/mL.

As for `O=C(O)c1ccc2c(c1)CCCC(c1ccc(Cl)cc1Cl)=C2c1ccc(O[C@H]2CCN(CCCF)C2)cc1` [AMCENESTRANT], the EC50 amounted to 20 nM in the series on MCF7 [20], 331 nM in the series on MCF7 [21] and 595 nM in the series on MCF7 [22]. At Estrogen receptor beta, this molecule returned an IC50 of 8.4 nM.

Values taken from ChEMBL document CHEMBL5346947, “Targeting the Estrogen Receptor for the Treatment of Breast Cancer: Recent Advances and Challenges” (J Med Chem, 2023).
